Columns and labels:
[1] = Stability test of BTG 1640 salts: purity under preservation conditions; format: physicochemical
Description: Samples of 100 mg each of BTG 1640 hydrochloride were subjected to the following preservation conditions:
The purities were then analyzed periodically, initially every three months, in order to underline possible variations.
Samples of 100 mg each of BTG 1640 fumarate prepared according to example 1C were subjected to the following preservation conditions:
Quarterly and in an overall period of nine months its purity was then analyzed in order to underline possible variations. The results in the following Table 3 were obtained:
As comparison other salts of BTG 1640 were prepared, and exactly: • BTG 1640 methanesulphonate • BTG 1640 maleate • BTG 1640 succinate following the procedure indicated in example 1 and substituting methanesolphonic, maleic and succinic acids for fumaric acid.
The stabilities were then evaluated by subjecting samples of 100 mg of each salt to the following analogous preservation conditions:
Quarterly and in an overall period of nine months their purity was then analyzed in order to underline possible variations.
The obtained results, together with those obtained in Example 2 for hydrochloride, in Example 3 for fumarate in order to make easier the comparison, were in Table 5 and represented in FIGS. 5-8.

female CD-1 mice = assay: Acute oral toxicity; format: in vivo; details: female CD-1 mice, oral gavage 2000 mg/kg bw
Description: Acute oral toxicity of salts hydrochloride and fumarate of BTG-1640 was evaluated.
The two salts were dispersed in an aqueous suspension, thus obtaining two formulations, each one orally administered through oesophageous gavage at dose of 2000 mg/kg bw (expressed as free base of BTG 1640) to one of two groups comprising three female CD-1 mice per group.
The observation lasted 14 days.

[2] = Stability test of BTG 1640 salts: evaluation of total impurities; format: physicochemical
Description: Contemporaneously, the impurity analysis in the conditions a)-d) of T/% RH were carried out.
As a confirmation of such evidence, a test for the evaluation of the impurity percentage of the sample subjected to the same conditions a)-d) of T/% RH was parallely carried out. The experimental values in Table 4 were obtained.

[3] = Absorption kinetic: plasma concentration of BTG 1640 after oral gavage; format: in vivo, rats Sprague Dawley; details: rats, oral gavage 10 mg/kg (as free base)
Description: Absorption extent and rate of molecule BTG 1640 in its forms of fumarate and hydrochloride salts were evaluated.
With this intent, the two salts were dispersed in an aqueous suspension of arabic gum at 5% thus obtaining two formulations, each one orally administered through oesophageous gavage at dose of 10 mg/kg (expressed as free base of BTG 1640) to five rats Sprague Dawley.
Plasma concentration of molecule BTG 1640 was determined at different time points.

[4] = T = 25° C., humidity 60% RH, time 0
[5] = T = 25° C., humidity 60% RH, time 3 (months)
[6] = T = 25° C., humidity 60% RH, time 6 (months)
[7] = T = 25° C., humidity 60% RH, time 9 (months)
[8] = T = 25° C., humidity 60% RH, time 12 (months)
[9] = T = 25° C., humidity 60% RH, time 18 (months)
[10] = T = 25° C., humidity 60% RH, time 24 (months)
[11] = T = 25° C., humidity 60% RH, time 36 (months)
[12] = T = 30° C., humidity 65% RH, time 0
[13] = T = 30° C., humidity 65% RH, time 3 (months)
[14] = T = 30° C., humidity 65% RH, time 6 (months)
[15] = T = 30° C., humidity 65% RH, time 9 (months)
[16] = T = 30° C., humidity 65% RH, time 12 (months)
[17] = T = 40° C., humidity 75% RH, time 0
[18] = T = 40° C., humidity 75% RH, time 3 (months)
[19] = T = 40° C., humidity 75% RH, time 6 (months)

## CN1OC2CCCC(=O)C2C1Cc1ccccc1.Cl (stereo not shown) [BTG 1640 hydrochloride]
[1]; T = 5° C., time 0
  Purity %: 99.3%
[1]; T = 5° C., time 3 (months)
  Purity %: 100.1%
[1]; T = 5° C., time 6 (months)
  Purity %: 100.3%
[1]; T = 5° C., time 9 (months)
  Purity %: 99.6%
[1]; T = 5° C., time 12 (months)
  Purity %: 99.6%
[1]; T = 5° C., time 18 (months)
  Purity %: 100.8%
[1]; T = 5° C., time 24 (months)
  Purity %: 98.8%
[1]; T = 5° C., time 36 (months)
  Purity %: 99.8%
[1]; [4]
  Purity %: 99.7%
[1]; [5]
  Purity %: 100.9%
[1]; [6]
  Purity %: 101.5%
[1]; [7]
  Purity %: 99.3%
[1]; [8]
  Purity %: 101.1%
[1]; [9]
  Purity %: 100.5%
[1]; [10]
  Purity %: 99.3%
[1]; [11]
  Purity %: 99.5%
[1]; [12]
  Purity %: 99.7%
[1]; [13]
  Purity %: 100.0%
[1]; [14]
  Purity %: 100.9%
[1]; [15]
  Purity %: 100.6%
[1]; [16]
  Purity %: 99.9%
[1]; [17]
  Purity %: 99.7%
[1]; [18]
  Purity %: 93.4%
[1]; [19]
  Purity %: 81.2%
[1]; condition d): 40° C. and 75% RH
  Stability (in words): strong instability
[1]; conditions a)-c): 5° C., 25° C./60% RH, 30° C./65% RH
  Stability (in words): good stability
[1]; on the basis of the stability results, preserved at 2-8° C.
  validity time period: 12 months
[1]; temperatures higher than 30° C.
  Stability (in words): unstable
Female CD-1 mice
  Clinical signs: Lethargy, ataxia, aggressiveness and vocalization
  Histopathological examination of kidneys: small foci of acute tubular necrosis in the cortex, balloon degeneration of the epithelium and dilatation of convoluted tubules
Female CD-1 mice; 14 days observation
  Lethality: lethal in two animals out of three
[2]; T = 5° C., time 0
  % impurities: 0.36%
[2]; T = 5° C., time 3 (months)
  % impurities: 0.58%
[2]; T = 5° C., time 6 (months)
  % impurities: 0.45%
[2]; T = 5° C., time 9 (months)
  % impurities: 0.31%
[2]; T = 5° C., time 12 (months)
  % impurities: 0.31%
[2]; T = 5° C., time 18 (months)
  % impurities: 0.1%
[2]; T = 5° C., time 24 (months)
  % impurities: 0.21%
[2]; T = 5° C., time 36 (months)
  % impurities: 0.18%
[2]; [4]
  % impurities: 0.36%
[2]; [5]
  % impurities: 0.43%
[2]; [6]
  % impurities: 0.87%
[2]; [7]
  % impurities: 0.24%
[2]; [8]
  % impurities: 0.34%
[2]; [9]
  % impurities: 0.13%
[2]; [10]
  % impurities: 0.28%
[2]; [11]
  % impurities: 0.30%
[2]; [12]
  % impurities: 0.36%
[2]; [13]
  % impurities: 0.44%
[2]; [14]
  % impurities: 0.52%
[2]; [15]
  % impurities: 0.12%
[2]; [16]
  % impurities: 0.76%
[2]; [17]
  % impurities: 0.36%
[2]; [18]
  % impurities: 6.99%
[2]; [19]
  % impurities: 17.31%
[2]; condition d): 40° C./75% RH
  Impurities (in words): unacceptable percentage of impurities
[3]; 2 minutes
  BTG 1640 free base concentration in plasma: 0.7402 µg/mL
[3]; 5 minutes
  BTG 1640 free base concentration in plasma: 1.4242 µg/mL
[3]; 30 minutes
  BTG 1640 free base concentration in plasma: 0.2354 µg/mL
[3]; 90 minutes
  BTG 1640 free base concentration in plasma: 0.1184 µg/mL
[3]; 300 minutes
  BTG 1640 free base concentration in plasma: 0 µg/mL

— patent publication US20100069450A1, “SALT OF 3-BENZYL-2-METHYL-2,3,3A,4,5,6,7, 7A- OCTAHYDROBENZO[D]ISOXAZOL-4-ONE” (ABIOGEN PHARMA S.P.A, priority 2006, published 2010)
